# Data published in the supplement of paper PMC10307832.
# Assays:
# Experiment in all cases: relative viability (nuclei count vs DMSO), 5 days (fraction); higher = more cells survive
# AT9283 + Alpelisib = compound: O=C(Nc1c[nH]nc1-c1nc2ccc(CN3CCOCC3)cc2[nH]1)NC1CC1 [AT9283] + Cc1nc(NC(=O)N2CCC[C@H]2C(N)=O)sc1-c1ccnc(C(C)(C)C(F)(F)F)c1 [Alpelisib] (partner 2 µM)
# Summary of the method: (§1)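 After 5 days of treatment, lung cancer cells in 1536-well plates were fixed and stained in a single step (final 0.05% Triton X-100, 1% formaldehyde, 1 ug/ml Hoechst) and their nuclei counted on 4× images. Treatment had been applied by pin tool the day after seeding as one drug alone or as a fixed anchor-drug dose with five library-drug doses (not always all listed) in √10 steps. Relative viability is the nuclei count of treated wells divided by that of vehicle wells, and values are medians of duplicate plates.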
# AT9283 + Linsitinib = compound: O=C(Nc1c[nH]nc1-c1nc2ccc(CN3CCOCC3)cc2[nH]1)NC1CC1 [AT9283] + C[C@]1(O)C[C@@H](c2nc(-c3ccc4ccc(-c5ccccc5)nc4c3)c3c(N)nccn32)C1 [Linsitinib] (partner 1 µM)
# Summary of the method: as §1
# Erlotinib + Olaparib = compound: C#Cc1cccc(Nc2ncnc3cc(OCCOC)c(OCCOC)cc23)c1 [Erlotinib] + O=C(c1cc(Cc2n[nH]c(=O)c3ccccc23)ccc1F)N1CCN(C(=O)C2CC2)CC1 [Olaparib] (partner 8 µM)
# Summary of the method: as §1
# AT9283 + Olaparib = compound: O=C(Nc1c[nH]nc1-c1nc2ccc(CN3CCOCC3)cc2[nH]1)NC1CC1 [AT9283] + O=C(c1cc(Cc2n[nH]c(=O)c3ccccc23)ccc1F)N1CCN(C(=O)C2CC2)CC1 [Olaparib] (partner 8 µM)
# Summary of the method: as §1
# AT9283 + Bortezomib = compound: O=C(Nc1c[nH]nc1-c1nc2ccc(CN3CCOCC3)cc2[nH]1)NC1CC1 [AT9283] + CC(C)C[C@H](NC(=O)[C@H](Cc1ccccc1)NC(=O)c1cnccn1)B(O)O [Bortezomib] (partner 0.002 µM)
# Summary of the method: as §1
Cell Line,relative viability (AT9283 + Alpelisib; first compound 0.003 µM),relative viability (AT9283 + Alpelisib; first compound 0.03 µM),relative viability (AT9283 + Alpelisib; first compound 0.09487 µM),relative viability (AT9283 + Alpelisib; first compound 0.3 µM),relative viability (AT9283 + Linsitinib; first compound 0.003 µM),relative viability (AT9283 + Linsitinib; first compound 0.03 µM),relative viability (AT9283 + Linsitinib; first compound 0.09487 µM),relative viability (AT9283 + Linsitinib; first compound 0.3 µM),relative viability (Erlotinib + Olaparib; first compound 0.02 µM),relative viability (Erlotinib + Olaparib; first compound 0.2 µM),relative viability (Erlotinib + Olaparib; first compound 0.6325 µM),relative viability (Erlotinib + Olaparib; first compound 2 µM),relative viability (AT9283 + Olaparib; first compound 0.003 µM),relative viability (AT9283 + Olaparib; first compound 0.03 µM),relative viability (AT9283 + Olaparib; first compound 0.09487 µM),relative viability (AT9283 + Olaparib; first compound 0.3 µM),relative viability (AT9283 + Bortezomib; first compound 0.003 µM),relative viability (AT9283 + Bortezomib; first compound 0.03 µM),relative viability (AT9283 + Bortezomib; first compound 0.09487 µM),relative viability (AT9283 + Bortezomib; first compound 0.3 µM)
LU99A,0.489,0.222,0.144,0.152,0.409,0.196,0.165,0.165,0.309,0.29,0.252,0.208,0.258,0.214,0.14,0.123,1.04,0.463,0.162,0.229
LCLC-97TM1,0.198,0.151,0.11,0.111,0.184,0.156,0.107,0.0936,0.45,0.352,0.508,0.321,0.41,0.233,0.103,0.0959,0.49,0.09,0.139,0.0748
NCI-H1666,1.04,0.736,0.363,0.291,0.964,0.779,0.265,0.355,0.787,0.793,0.676,0.645,0.739,0.724,0.608,0.533,0.806,0.442,0.297,0.298
NCI-H2347,1.16,1.04,0.606,0.451,0.952,0.975,0.555,0.389,0.601,0.587,0.526,0.562,0.595,0.615,0.477,0.413,0.933,1.01,1,0.539
NCI-H441,0.717,0.641,0.235,0.198,0.535,0.474,0.142,0.165,0.626,0.54,0.534,0.495,0.557,0.504,0.417,0.319,0.406,0.442,0.536,0.381
HCC-78,0.286,0.275,0.165,0.18,0.475,0.41,0.172,0.185,0.877,0.634,,0.728,0.909,0.599,0.273,0.249,0.425,0.472,0.237,0.245
EPLC-272H,0.872,0.831,0.954,0.2,1.26,1.25,0.973,0.183,0.704,0.711,1.01,0.575,0.698,0.18,0.107,0.119,0.786,0.831,0.802,0.122
NCI-H647,1.11,0.355,0.128,0.124,1.11,0.17,0.151,0.11,0.556,0.541,0.594,0.243,0.555,0.311,0.0867,0.0596,0.822,0.145,0.13,0.0938
NCI-H661,0.627,0.427,0.329,0.36,0.513,0.474,0.252,0.295,0.801,0.79,0.74,0.615,0.759,0.499,0.371,0.418,0.779,0.531,0.338,0.346
NCI-H23,0.707,0.668,0.396,0.168,0.801,0.338,0.232,0.145,0.388,0.261,0.289,0.294,0.334,0.297,0.3,0.211,0.852,1.01,0.557,0.236
NCI-H727,0.669,0.434,0.313,0.235,0.211,0.16,0.199,0.23,0.696,0.947,0.607,0.721,0.84,0.768,0.494,0.496,0.824,0.508,0.351,0.306
EKVX,0.934,0.726,0.356,0.218,0.966,0.79,0.434,0.204,0.839,0.476,0.385,0.183,0.796,0.758,0.496,0.239,0.996,0.652,0.636,0.351
NCI-H2087,1.22,0.658,0.259,0.165,1.08,0.542,0.339,0.245,0.622,0.576,0.576,0.469,0.71,0.416,0.194,0.154,0.753,0.626,0.447,0.23
SK-LU-1,1.2,0.426,0.304,0.254,1.1,0.349,0.323,0.356,0.536,0.551,0.403,0.455,0.495,0.479,0.259,0.258,1.21,1.02,0.646,0.279
NCI-H322M,0.846,0.906,0.544,0.396,0.932,0.682,0.478,0.425,0.776,0.67,0.631,0.551,0.834,0.58,0.518,0.453,1.25,1.34,0.861,0.407
